The text below walks through data of patent publication US20090048117A1, “MODULATION OF IMMUNE SYSTEM FUNCTION BY MODULATION OF POLYPEPTIDE ARGININE METHYLTRANSFERASES” (President and Fellows of Harvard College, priority 2003, published 2009).

For assay [1], the system named is NFAT reporter element. The experiment in a line: NFAT consensus site luciferase reporter assay in Jurkat cells. The assay is classed as cell-based, human. The conditions noted are these: PRMT1 with NFATc2. The procedure:
FIGS. 13A-13D depict the regulation of the IFNγ and IL-4 promoters by PRMT1. (A) Jurkat cells were transfected with the 9.2 kb IFNγ luciferase reporter 5 μg) and expression vectors for T-bet (5 μg) and PRMT1 (10 μg). Cells were unstimulated or stimulated with PMA/ionomycin for 6 hrs prior to luciferase assays. (B) Jurkat cells were transfected with the IL-4 luciferase reporter (2.5 μg) and expression vectors for NFATc2 (2.5 μg), c-Maf (2.5 μg), and PRMT1 (10 μg). Cells were treated as in (A). (C) Jurkat cells were transfected with the IL-4 luciferase reporter (2.5 μg) and expression vectors for JunB (2.5 μg), c-Maf (2.5 μg), and PRMT1 (10 μg). Cells were treated as in (A). (D) Jurkat cells were transfected with an luciferase reporter driven by NFAT consensus sites and expression vectors for NFATc2 (2.5 μg) and PRMT1 (10 μg). Cells were treated as in (A). (Luciferase units were normalized to TK-renilla luciferase activity. Results are representative to at least three independent experiments.)
The IL-4 promoter contains several composite NFAT/AP-1 sites. Whether PRMT1 coactivation is mediated through NFAT or AP-1 factors was investigated as both NFAT and JunB are involved in the regulation of IL-4 promoter activity (Li, B., et al. (1999) EMBO J 18:420-432). […]

Assay [2] relates to IL-4 promoter. The experiment in a line: IL-4 luciferase reporter assay in Jurkat cells. The settings on record: PRMT1 with NFATc2 and c-Maf, PMA/ionomycin stimulation. The assay is classed as cell-based, human. On the procedure:
FIGS. 11A-11C depict the effects of MTA on T helper cytokine production. (A) T helper cells were isolated from the lymph nodes of DO11.10 TCR transgenic mice and grown under Th1 or Th2 conditions for 7 days. Th1 and Th2 cells were treated with PMA/ionomycin for 3 hrs or pretreated with 1 mM MTA for 60 min prior to PMA/ionomycin stimulation. RNA was isolated with analyzed by RNase protection analysis for transcript level of indicated cytokines. L32 and GAPDH included in the multitemplate probe set served as an internal control. (B) Cells were grown as in (A) either pretreated with 1 mM MTA or left untreated and intracellular cytokine analysis was performed after stimulation with PMA/ionomycin for 2 hrs and an additional 2 hrs with […] monensin. (C) MTA inhibits IL-4 promoter activity. Jurkat cells were transfected with IL-4 reporter vector (2.5 μg) and expression vectors for c-Maf (2.5 μg), NFATc2 (2.5 μg), and PRMT1 (10 μg) along with a TK-renilla luciferase vector (5 ng) as an internal control. Transfectants were left unstimulated or pretreated with 1 mM MTA before a 6 hr PMA/ionomycin stimulation. Luciferase values were calculated relative to TK renilla luciferase internal controls and are expressed relative to unstimulated reporter activity. Similar results were obtained in at least three independent experiments. […]
A general note: Reporter assays use an easily measured gene product as a stand-in for the process of interest.

Assay [3] deals with NFAT4. The experiment in a line: Nuclear translocation of NFAT4 by immunofluorescence in HepG2 cells. Set-up: key: Subcellular localization of NFAT4 in the cytoplasm is indicated by a (−); nuclear translocation of NFAT4 is indicated by (^+). The conditions noted are these: 1 μM ionomycin. The format is cell-based. On the procedure: The effect of NIP45 on the nuclear translocation of NFAT4 also was investigated. HepG2 cells were transfected with either NFAT4 or NFAT4 plus NIP45 and stimulated the following day with 1 μM ionomycin for 0, 2, 4, 8 or 15 minutes. For one sample, the cells were stimulated for 15 minutes with ionomycin and then washed with fresh media and allowed to rest for an additional 15 minutes (indicated as “15 min.^+15 min. rest” in Table 1). This analysis is designed to examine the function of NIP45 as a nuclear retention factor. […] All samples were then fixed and analyzed by immunofluorescence for translocation of NFAT4 as described above. Subcellular localization of NFAT4 in the cytoplasm is indicated by a (−) and nuclear translocation of NFAT4 is indicated by (^+).

Take “PRMT1: type I protein arginine methyltransferase (SEQ ID NO:10), expressed from a transfected expression vector”: in assay [1], the “augmentation of NFATc2 transactivation of an NFAT reporter element” value is recorded as “approximately 10 fold”. For the same compound, in assay [2], the “IL-4 promoter activity over NFATc2/c-Maf only” value stood at 5 fold.

`C[C@H](CCC(=O)O)C[C@H](C)C[C@H](C)C(=O)/C=C(\O)[C@H](C)C[C@H](C)C/C=C/[C@@H](C)[C@@H](O)[C@@H](C)[C@@H](O)C[C@@H]1CC[C@@](C)([C@H]2CC[C@@](C)([C@@H](C)O)O2)O1` [Ionomycin, ionomycin]: the “Nuclear Translocation of NFAT4” value is reported as “−” in assay [3] (0 min.), “+” in assay [3] (8 min.), “+” in assay [3] (15 min.) and “−” in assay [3] (15 min. + 15 min. rest in fresh media).
